Experimental findings from PMC6375636, “Monotherapy with a low-dose lipopeptide HIV fusion inhibitor maintains long-term viral suppression in rhesus macaques” (PLoS Pathogens, 2019) are described below.

The test system of series [1] is HIV-1NL4-3(D36G) pseudovirus. The series is classed as cell-based. The note with it: Fig 1; NL4-3(D36G) pseudovirus; mean ± SD of three assays in triplicate; read-out: Anti-HIV activity (IC50, pM) NL4-3 entry. As to the method: The inhibitory activities of inhibitors against HIV-1 pseudoviruses and replication-competent isolates were measured as described previously. Briefly, HIV-1 pseudoviruses were generated via the cotransfection of HEK293T cells with an Env-expressing plasmid and a backbone plasmid that encodes Env-defective, luciferase-expressing HIV-1 genome (pSG3Δenv). Viral stocks of replication-competent HIV-1 isolates were generated by transfecting viral molecular clones into HEK293T cells. […] Inhibitors were prepared in 3-fold dilutions, mixed with 100 TCID50 of a virus, and then incubated for 1 h at room temperature. […] Luciferase activity was measured as described above.

The next series has as its target HIV-1JRCSF. It counts as cell-based. The note with it: Fig 1; replication-competent virus; mean ± SD of three assays in triplicate; read-out: Anti-HIV activity (IC50, pM) JRCSF infection. As to the method:
The inhibitory activities of inhibitors against HIV-1 pseudoviruses and replication-competent isolates were measured as described previously. Briefly, HIV-1 pseudoviruses were generated via the cotransfection of HEK293T cells with an Env-expressing plasmid and a backbone plasmid that encodes Env-defective, luciferase-expressing HIV-1 genome (pSG3Δenv). Viral stocks of replication-competent HIV-1 isolates were generated by transfecting viral molecular clones into HEK293T cells. Culture supernatants were harvested at 48 h posttransfection, and 50% tissue culture infectious doses (TCID50) in TZM-bl cells were determined. Inhibitors were prepared in 3-fold dilutions, mixed with 100 TCID50 of a virus, and then incubated for 1 h at room temperature. The mixture was added to TZM-bl cells (10^4/well), and the cells were incubated for additional 48 h at 37°C. Luciferase activity was measured as described above.

A further series concerns the target T1, HIV-1HXB2 Env (Human immunodeficiency virus type 1 group M subtype B, UniProt P04578).
T1 construct: HL2/3 cells, which stably express high levels of Env, Gag, Tat, Rev, and Nef proteins of the integrated HIV-1 molecular clone HXB2/3gpt; host or cells: HL2/3 cells (effector), cocultured with TZM-bl target cells
The experiment in a line: HIV-1HXB2 Env-mediated cell-cell fusion (HL2/3 effector, TZM-bl target, luciferase reporter). It counts as cell-based. How it is done: The inhibitory activities of inhibitors on HIV-1HXB2 Env-mediated cell-cell fusion were determined by a reporter gene assay based on the activation of an HIV LTR-driven luciferase cassette in TZM-bl cells (target) by HIV-1 tat from HL2/3 cells (effector). Briefly, 1 x 10^4/well of TZM-bl cells were plated in 96-well plates and incubated at 37°C overnight. Then, 3 x 10^4/well of HL2/3 cells were cocultured with target cells for 6 h at 37°C in the presence or absence of an inhibitor at graded concentrations. Luciferase activity was measured using luciferase assay reagents and a Luminescence Counter (Promega, Madison, Wisconsin, USA).
A general note: Reporter assays use an easily measured gene product as a stand-in for the process of interest.

Series [2] deals with T2, gp41 NHR-derived target mimic peptide N39 (Human immunodeficiency virus type 1 group M subtype B, UniProt P04578).
T2 construct: the gp41 NHR-derived target mimic peptide N39
T2 sequence (P04578 528-566): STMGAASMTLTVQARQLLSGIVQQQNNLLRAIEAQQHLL
The experiment in a line: CD spectroscopy of lipopeptides in complex with target mimic peptide N39. The series is classed as binding, HIV-1. The note with it: complex with N39, each peptide 10 μM in PBS; representative of 2 assays. Further details: [θ]222: unit not given here. From the text: Spectra were corrected by subtracting a solvent blank.

For series [3] the following is noted: lipopeptide alone, 10 μM in PBS, representative of 2 assays; for Helix content (%): [θ]222 / -33,000.

As a reminder, the IC50 is the midpoint of a concentration-inhibition curve.

Peptide text beside a SMILES is read from it. * marks the point of attachment. Docosanoyl = CCCCCCCCCCCCCCCCCCCCCC(=O)*; Arachidoyl = CCCCCCCCCCCCCCCCCCCC(=O)*; Stearoyl = CCCCCCCCCCCCCCCCCC(=O)*; X1 = CCCCCCCCCCCCCCCCCCCCCCCC(=O)*; Lauroyl = CCCCCCCCCCCC(=O)*; Octanoyl = CCCCCCCC(=O)*

T1 sequence (P04578 512-856): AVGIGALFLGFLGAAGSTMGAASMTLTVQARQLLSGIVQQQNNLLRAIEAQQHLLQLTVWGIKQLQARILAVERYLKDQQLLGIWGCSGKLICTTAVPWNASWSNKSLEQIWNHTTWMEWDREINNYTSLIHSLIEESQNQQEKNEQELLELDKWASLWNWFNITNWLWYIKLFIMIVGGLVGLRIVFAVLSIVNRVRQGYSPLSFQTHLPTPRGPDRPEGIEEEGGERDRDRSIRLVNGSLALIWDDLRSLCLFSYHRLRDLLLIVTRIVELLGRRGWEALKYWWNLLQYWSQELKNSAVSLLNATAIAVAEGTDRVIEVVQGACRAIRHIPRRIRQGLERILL

For `CCCCCCCCCCCCCCCCCCCCCCCC(=O)NCCCC[C@H](NC(=O)[C@H](CCC(=O)O)NC(=O)[C@H](CC(C)C)NC(=O)[C@H](CCCCN)NC(=O)[C@H](CCCCN)NC(=O)[C@H](CC(C)C)NC(=O)[C@H](CCC(=O)O)NC(=O)[C@H](CCC(=O)O)NC(=O)[C@H](CCC(=O)O)NC(=O)[C@H](CC(N)=O)NC(=O)[C@H](CCCCN)NC(=O)[C@H](CCCCN)NC(=O)[C@H](CCC(N)=O)NC(=O)[C@H](CCC(N)=O)NC(=O)[C@H](CCC(=O)O)NC(=O)[C@H](CCC(=O)O)NC(=O)[C@H](C)NC(=O)[C@H](CCCCN)NC(=O)[C@H](CCCCN)NC(=O)[C@H](CC(C)C)NC(=O)[C@H](CC(C)C)NC(=O)[C@H](CCC(=O)O)NC(=O)[C@H](CCC(=O)O)NC(=O)[C@@H](NC(=O)[C@H](CCCCN)NC(=O)[C@H](CCC(N)=O)NC(=O)[C@H](CCC(=O)O)NC(=O)[C@H](Cc1c[nH]c2ccccc12)NC(C)=O)[C@@H](C)CC)C(N)=O` [LP-77] (Ac-WEQKIEELLKKAEEQQKKNEEELKKLEK(X1)-NH2), the IC50 was found to be 7.98 ± 0.97 pM in series [1], 12 ± 1.34 pM on HIV-1JRCSF and 161 ± 6.64 pM against HIV-1HXB2 Env.
The matching figures for `CCCCCCCCCCCCCCCCCCCCCC(=O)NCCCC[C@H](NC(=O)[C@H](CCC(=O)O)NC(=O)[C@H](CC(C)C)NC(=O)[C@H](CCCCN)NC(=O)[C@H](CCCCN)NC(=O)[C@H](CC(C)C)NC(=O)[C@H](CCC(=O)O)NC(=O)[C@H](CCC(=O)O)NC(=O)[C@H](CCC(=O)O)NC(=O)[C@H](CC(N)=O)NC(=O)[C@H](CCCCN)NC(=O)[C@H](CCCCN)NC(=O)[C@H](CCC(N)=O)NC(=O)[C@H](CCC(N)=O)NC(=O)[C@H](CCC(=O)O)NC(=O)[C@H](CCC(=O)O)NC(=O)[C@H](C)NC(=O)[C@H](CCCCN)NC(=O)[C@H](CCCCN)NC(=O)[C@H](CC(C)C)NC(=O)[C@H](CC(C)C)NC(=O)[C@H](CCC(=O)O)NC(=O)[C@H](CCC(=O)O)NC(=O)[C@@H](NC(=O)[C@H](CCCCN)NC(=O)[C@H](CCC(N)=O)NC(=O)[C@H](CCC(=O)O)NC(=O)[C@H](Cc1c[nH]c2ccccc12)NC(C)=O)[C@@H](C)CC)C(N)=O` [LP-78] (Ac-WEQKIEELLKKAEEQQKKNEEELKKLEK(Docosanoyl)-NH2): 3.73 ± 0.45 pM, 7.16 ± 2.01 pM and 54.4 ± 7.09 pM.
`CCCCCCCCCCCCCCCCCCCC(=O)NCCCC[C@H](NC(=O)[C@H](CCC(=O)O)NC(=O)[C@H](CC(C)C)NC(=O)[C@H](CCCCN)NC(=O)[C@H](CCCCN)NC(=O)[C@H](CC(C)C)NC(=O)[C@H](CCC(=O)O)NC(=O)[C@H](CCC(=O)O)NC(=O)[C@H](CCC(=O)O)NC(=O)[C@H](CC(N)=O)NC(=O)[C@H](CCCCN)NC(=O)[C@H](CCCCN)NC(=O)[C@H](CCC(N)=O)NC(=O)[C@H](CCC(N)=O)NC(=O)[C@H](CCC(=O)O)NC(=O)[C@H](CCC(=O)O)NC(=O)[C@H](C)NC(=O)[C@H](CCCCN)NC(=O)[C@H](CCCCN)NC(=O)[C@H](CC(C)C)NC(=O)[C@H](CC(C)C)NC(=O)[C@H](CCC(=O)O)NC(=O)[C@H](CCC(=O)O)NC(=O)[C@@H](NC(=O)[C@H](CCCCN)NC(=O)[C@H](CCC(N)=O)NC(=O)[C@H](CCC(=O)O)NC(=O)[C@H](Cc1c[nH]c2ccccc12)NC(C)=O)[C@@H](C)CC)C(N)=O` [LP-79] (Ac-WEQKIEELLKKAEEQQKKNEEELKKLEK(Arachidoyl)-NH2): the results for the IC50 (in series [1]; on HIV-1JRCSF; at HIV-1HXB2 Env) were 4.39 ± 0.67 pM, 5.7 ± 0.86 pM and 38.7 ± 4.47 pM, respectively. For the same compound, the results for the “Helix content (%)” value in series [2] and in series [3] were 55% and 48%, respectively. Besides, the “[θ]222” value in series [2] is -18030. The “Tm (°C)” value in series [3] (ellipticity at 222 nm, 20-98°C, 2°C/min) amounted to 56 °C.
In the case of `CCCCCCCCCCCC(=O)NCCCC[C@H](NC(=O)[C@H](CCC(=O)O)NC(=O)[C@H](CC(C)C)NC(=O)[C@H](CCCCN)NC(=O)[C@H](CCCCN)NC(=O)[C@H](CC(C)C)NC(=O)[C@H](CCC(=O)O)NC(=O)[C@H](CCC(=O)O)NC(=O)[C@H](CCC(=O)O)NC(=O)[C@H](CC(N)=O)NC(=O)[C@H](CCCCN)NC(=O)[C@H](CCCCN)NC(=O)[C@H](CCC(N)=O)NC(=O)[C@H](CCC(N)=O)NC(=O)[C@H](CCC(=O)O)NC(=O)[C@H](CCC(=O)O)NC(=O)[C@H](C)NC(=O)[C@H](CCCCN)NC(=O)[C@H](CCCCN)NC(=O)[C@H](CC(C)C)NC(=O)[C@H](CC(C)C)NC(=O)[C@H](CCC(=O)O)NC(=O)[C@H](CCC(=O)O)NC(=O)[C@@H](NC(=O)[C@H](CCCCN)NC(=O)[C@H](CCC(N)=O)NC(=O)[C@H](CCC(=O)O)NC(=O)[C@H](Cc1c[nH]c2ccccc12)NC(C)=O)[C@@H](C)CC)C(N)=O` [LP-81] (Ac-WEQKIEELLKKAEEQQKKNEEELKKLEK(Lauroyl)-NH2), the IC50 is 111 ± 68.1 pM in series [1], 183 ± 45.4 pM on HIV-1JRCSF and 353 ± 76.3 pM at HIV-1HXB2 Env. The “Helix content (%)” value came out at 49% in series [2] and 37% in series [3]. The “[θ]222” value in series [2] is -16313.
Regarding `CCCCCCCC(=O)NCCCC[C@H](NC(=O)[C@H](CCC(=O)O)NC(=O)[C@H](CC(C)C)NC(=O)[C@H](CCCCN)NC(=O)[C@H](CCCCN)NC(=O)[C@H](CC(C)C)NC(=O)[C@H](CCC(=O)O)NC(=O)[C@H](CCC(=O)O)NC(=O)[C@H](CCC(=O)O)NC(=O)[C@H](CC(N)=O)NC(=O)[C@H](CCCCN)NC(=O)[C@H](CCCCN)NC(=O)[C@H](CCC(N)=O)NC(=O)[C@H](CCC(N)=O)NC(=O)[C@H](CCC(=O)O)NC(=O)[C@H](CCC(=O)O)NC(=O)[C@H](C)NC(=O)[C@H](CCCCN)NC(=O)[C@H](CCCCN)NC(=O)[C@H](CC(C)C)NC(=O)[C@H](CC(C)C)NC(=O)[C@H](CCC(=O)O)NC(=O)[C@H](CCC(=O)O)NC(=O)[C@@H](NC(=O)[C@H](CCCCN)NC(=O)[C@H](CCC(N)=O)NC(=O)[C@H](CCC(=O)O)NC(=O)[C@H](Cc1c[nH]c2ccccc12)NC(C)=O)[C@@H](C)CC)C(N)=O` [LP-82] (Ac-WEQKIEELLKKAEEQQKKNEEELKKLEK(Octanoyl)-NH2), the IC50 in series [1] was determined as 1010 ± 344 pM; at HIV-1JRCSF it was 3710 ± 1080 pM; on HIV-1HXB2 Env, 3210 ± 1430 pM. Further, the “Helix content (%)” value in series [2] came to 39%; in series [3] it was 22%. In series [2], the “[θ]222” value is -12910.
For `CCCCCCCCCCCCCCCCCC(=O)NCCCC[C@H](NC(=O)[C@H](CCC(=O)O)NC(=O)[C@H](CC(C)C)NC(=O)[C@H](CCCCN)NC(=O)[C@H](CCCCN)NC(=O)[C@H](CC(C)C)NC(=O)[C@H](CCC(=O)O)NC(=O)[C@H](CCC(=O)O)NC(=O)[C@H](CCC(=O)O)NC(=O)[C@H](CC(N)=O)NC(=O)[C@H](CCCCN)NC(=O)[C@H](CCCCN)NC(=O)[C@H](CCC(N)=O)NC(=O)[C@H](CCC(N)=O)NC(=O)[C@H](CCC(=O)O)NC(=O)[C@H](CCC(=O)O)NC(=O)[C@H](C)NC(=O)[C@H](CCCCN)NC(=O)[C@H](CCCCN)NC(=O)[C@H](CC(C)C)NC(=O)[C@H](CC(C)C)NC(=O)[C@H](CCC(=O)O)NC(=O)[C@H](CCC(=O)O)NC(=O)[C@@H](NC(=O)[C@H](CCCCN)NC(=O)[C@H](CCC(N)=O)NC(=O)[C@H](CCC(=O)O)NC(C)=O)[C@@H](C)CC)C(N)=O` [LP-88] (Ac-EQKIEELLKKAEEQQKKNEEELKKLEK(Stearoyl)-NH2), the IC50 in series [1] is 4.26 ± 1.3 pM; at HIV-1JRCSF, 4.29 ± 0.58 pM; against HIV-1HXB2 Env, 14.4 ± 1.37 pM. Moreover, the “Helix content (%)” value in series [2] was 55%; in series [3] it was 34%. Moreover, the “[θ]222” value in series [2] was -18242.
Take “Ac-WEQKIEELLKKAEEQQKKNEEELKKLEK-NH2 [Lipopeptide P-52]”: the results for the IC50 (in series [1]; on HIV-1JRCSF; on HIV-1HXB2 Env) were 2620 ± 235 pM, 2170 ± 146 pM and 1340 ± 119 pM, respectively.
